Reference: publication PMC12292992, “Betulinic Acid ω-Triphenylphosphonium Alkyl Esters: Antiproliferative Activities and In Silico Pharmacokinetic Profiles” (Biomedicines, 2025)

Experiments:
[1] = test system: MRC-5 normal human lung fibroblasts; experiment: MTT cell viability assay, normal lung fibroblasts; assay type: cell-based; conditions: MRC5, MRC-5, 72 h
Protocol: (§1) Human cell lines were obtained from the American Type Culture Collection (ATCC, Manassas, VA, USA). Normal lung MRC-5 fibroblasts (ATCC® CCL-171™), SK-MES-1 lung cancer cells (ATCC® HTB-58™), and J82 bladder carcinoma cells (ATCC® HTB-1™) were grown as monolayers in Eagle’s minimum essential medium (MEM) with Earle’s salts, 2 mM L-glutamine, and 1.5 g/L sodium bicarbonate. Gastric epithelial AGS cells (ATCC® CRL-1739™) were grown as monolayers in Ham’s F-12 medium containing 1 mM L-glutamine and 1.5 g/L sodium bicarbonate. Promyelocytic leukemia HL-60 (ATCC® CCL-240™), colorectal adenocarcinoma HCT-15 (ATCC® CCL-225™), metastatic colorectal COLO205 (ATCC® CCL-222™), and breast cancer AU565 (ATCC® CRL-2351™, ER^−-HER2/neu^+) cells were grown in suspension in an RPMI-1640 medium containing 1 mM sodium pyruvate and 2.0 g/L sodium bicarbonate. Human breast cancer MCF-7 (ATCC® HTB-22™, ER^+-HER2/neu^−) and MDA-MB-231 (ATCC® HTB-26™, ER^−-HER2/neu^−) cells were grown as monolayers in DMEM medium. All media were supplemented with 10% heat-inactivated fetal bovine serum (HI-FBS), 100 IU/mL penicillin G, and 100 µg/mL streptomycin. Cells were maintained at 37 °C in a humidified incubator with 5% CO2.
(§2) MRC-5, SK-MES-1, J82, and AGS cells were seeded at a density of 5 × 10^4 cells/mL in 96-well plates. COLO205, HCT-15, MCF-7, MDA-MB-231, and AU565 cells were seeded at 1 × 10^5 cells/mL, while HL-60 cells were plated at 3 × 10^5 cells/mL. A volume of 100 µL of the cell suspension was added to each well. After 24 h, the compounds were added in increasing concentrations (ranging from 0 to 100 µM), and cells were incubated for 24, 48, or 72 h. The compounds were dissolved in DMSO and diluted in complete medium to a final concentration of 0.5% DMSO. Cells treated with 0.5% DMSO in complete medium were used as viability controls (100%). Etoposide (98% purity, Sigma-Aldrich, St. Louis, MO, USA) was used as the reference compound. Each concentration was tested in quadruplicate, and each experiment was performed twice using independent cell preparations. At the end of the incubation period, cell viability was determined using the MTT reduction assay. The results were transformed into percentages relative to controls, and IC50 values were obtained graphically from the dose–response curves. Results are presented as IC50 values ± standard deviation (SD).

AGS cells = experiment: MTT cell viability assay, gastric adenocarcinoma; assay type: cell-based; conditions: Homo sapiens, 72 h
Protocol: as §1, §2

SK-MES-1 cells = experiment: MTT cell viability assay, lung cancer; assay type: cell-based; conditions: Homo sapiens, SK-MES-1, 72 h
Protocol: as §1, §2

J82 cells = experiment: MTT cell viability assay, bladder carcinoma; assay type: cell-based; conditions: Homo sapiens, J82, 72 h
Protocol: as §1, §2

HL-60 cells = experiment: MTT cell viability assay, leukemia; assay type: cell-based; conditions: Homo sapiens, HL-60, 72 h
Protocol: as §1, §2

HCT-15 cells [2] = experiment: MTT cell viability assay, colorectal carcinoma; assay type: cell-based, human; conditions: for IC50: Homo sapiens
Protocol: as §1, §2

MCF-7 cells = experiment: MTT cell viability assay, mammary carcinoma; assay type: cell-based; conditions: Homo sapiens, MCF7
Protocol: as §1, §2

MDA-MB-231 cells = experiment: MTT cell viability assay, mammary carcinoma; assay type: cell-based; conditions: Homo sapiens
Protocol: as §1, §2

COLO205 cells [3] = experiment: LDH release assay; assay type: cell-based, human; conditions: COLO205, 0.5–5 μM, 24 h
Protocol: (§3) COLO205 and HCT-15 cells were cultured at 2 × 10^4 cells/well in 96-well plates and incubated for 24 h. Afterwards, BA-C4-TPP^+Br^− was added in increasing concentrations (0.5, 1, 2.5, and 5 µM) for 24 h. Finally, the supernatant of each well was transferred to a new plate (10 µL/well), and the LDH reaction mix was added (100 µL/well). The plate was incubated for 20 min at room temperature, and the absorbance of each well was measured using a Varioskan® Flash plate reader (Thermo Scientific, Waltham, MA, USA) at 450 nm. All values are expressed as a percentage of LDH activity relative to cells incubated with Cell Lysis solution (provided in the kit) for 24 h.

HCT-15 cells [4] = experiment: LDH release assay; assay type: cell-based, human
Protocol: as §3

COLO205 cells [5] = experiment: Annexin V/propidium iodide double staining, flow cytometry; assay type: cell-based, human; conditions: 24 h
Protocol: (§4) The type of cell death induced by the BA-C4-TPP^+Br^− was assessed by flow cytometry, using Annexin V/propidium iodide (AV/PI) double staining, following the instructions of the Annexin V-FITC Apoptosis Detection Kit (Abcam, Cambridge, UK). Cells were cultured at 5 × 10^4 cells/well in 24-well plates and incubated overnight. Afterwards, cells were treated with increasing concentrations of BA-C4-TPP^+Br^− (1, 2.5, 5, or 10 µM for COLO205 and HCT-15 cells) for 24 h. Finally, cells were trypsinized, resuspended in annexin V binding buffer 1X, adding AV and PI, and incubated for 5 min at room temperature, protected from light. Control corresponds to cells incubated with DMSO 1%. Fluorescence of each probe was assessed by flow cytometry (FACSAria®III, BD Biosciences, Franklin Lakes, NJ, USA). Wavelengths used were 488Ex/530Em nm for AV-FITC and 488Ex/575Em nm for PI. Results are expressed as total apoptotic cells (percentage of AV+/PI− and AV+/PI+ cells), necrotic cells (percentage of AV-/PI+ cells), and live cells (percentage of AV-/PI− cells). Cyflogic software (non-commercial 6th version, CyFlo Ltd., Turku, Finland) was used for data processing.

HCT-15 cells [6] = experiment: as above; assay type: cell-based, human; conditions: 24 h
Protocol: as §4

human cancer cell lines = experiment: MTT cell viability, summary over the human cancer cell lines; assay type: cell-based; conditions: summary statement
Protocol: as §1, §2

C=C(C)[C@@H]1CC[C@]2(C(=O)OCCCC[P+](c3ccccc3)(c3ccccc3)c3ccccc3)CC[C@]3(C)[C@H](CC[C@@H]4[C@@]5(C)CC[C@H](O)C(C)(C)[C@@H]5CC[C@]43C)[C@@H]12 [BA-C4-TPP^+Br^−, 4-Triphenylphosphoniobutyl 3β-hydroxylup-20(29)-en-28-oate bromide]
IC50 [1]: 210 ± 10 nM | IC50 (AGS cells): 350 ± 20 nM | IC50 (SK-MES-1 cells): 320 ± 80 nM | IC50 (J82 cells): 840 ± 20 nM | IC50 (HL-60 cells): 220 ± 40 nM | increase in potency compared to non-modified BA scaffold (HCT-15 cells [2]; HCT-15 cells at 72 h): approximately 7 fold | IC50 (HCT-15 cells [2]; HCT-15, 24 h): 1460 ± 170 nM | IC50 (HCT-15 cells [2]; HCT-15, 48 h): 610 ± 160 nM | IC50 (HCT-15 cells [2]; HCT-15, 72 h): 520 ± 120 nM | IC50 (MCF-7 cells; MCF-7, 24 h): 3880 ± 450 nM | IC50 (MCF-7 cells; MCF-7, 48 h): 950 ± 340 nM | IC50 (MDA-MB-231 cells; MDA-MB-231, 24 h): 1700 ± 440 nM | IC50 (MDA-MB-231 cells; MDA-MB-231, 48 h): 1010 ± 90 nM | LDH release (COLO205 cells [3]): no significant LDH release | LDH release (HCT-15 cells [4]; HCT-15, 2.5 μM, 24 h, relative to Cell Lysis solution): 18% | LDH release relative to control (DMSO) (HCT-15 cells [4]; HCT-15, 24 h): double the control (DMSO) value | apoptosis induction (COLO205 cells [5]; COLO205, 1 μM): ~14% | apoptosis induction (COLO205 cells [5]; COLO205, 2.5 μM): ~34% | necrotic cell death (COLO205 cells [5]; COLO205, 5 μM): 15% | necrotic cell death (COLO205 cells [5]; COLO205, initial concentration (1 μM)): 5% | apoptosis induction (HCT-15 cells [6]; HCT-15, 2.5 μM): 12% | necrosis induction (HCT-15 cells [6]; HCT-15, 2.5 μM): 7% | necrotic cell death (HCT-15 cells [6]; HCT-15, 10 μM): ~30% | IC50 (human cancer cell lines; Homo sapiens, 48 and 72 h of treatment): < 1000 nM | increase in potency (human cancer cell lines; nine human cancer cell lines, relative to BA): over 100 fold
